From patent EP0840727B1, “3-HYDROXY-2(1H)-[…] AGENTS” (priority 1995, dated 1997) come the findings set out here.

The nature of data set [1]: Promoting excretion of 238Pu(IV) in mice by injected ligands. The data set is classed as in vivo. As to conditions: for percent of injected ^238Pu ± SD at 24 h, tissues: liver / percent of injected ^238Pu ± SD at 24 h, tissues: skeleton / percent of injected ^238Pu ± SD at 24 h, tissues: soft tissue / percent of injected ^238Pu ± SD at 24 h, whole body / percent of injected ^238Pu at 24 h, excreta: feces and GI contents / percent of injected ^238Pu at 24 h, excreta: urine 0-24 h / percent of injected ^238Pu at 24 h, tissues: kidneys: ligand 30 µmol kg^-1 ip at 1 h after iv ^238Pu(IV) citrate, kill at 24 h; for percent of injected ^238Pu at 24 h, excreta: feces and GI contents / percent of injected ^238Pu at 24 h, excreta: urine 0-24 h / percent of injected ^238Pu at 24 h, tissues: kidneys: pooled samples. The text has this: Animal studies were completed using methods detailed in Radiation Protection Dosimetry, in press, P. W. Durbin et al., "In Vivo Chelation of Am(III), Pu(IV), Np(V) and U(VI) in Mice by TREN-(Me-3,2-HOPO)"; Radiation Protection Dosimetry, 17, No. 1, 1989, p. 351, P. W. Durbin et al., "Removal of ^238Pu(IV) from Mice by Polycatechoylate, -Hydroxamate or -Hydroxypyridinonate Ligands"; Radiation Research, 99, 1984, p. 85, P. W. Durbin et al., "Specific Sequestering Agents for the Actinides ..."; Radiation Research, 99, 1984, p. 106, P. W. Durbin et al., "Removal of Pu and Am from Beagles and Mice ..."; Radiation Research, 81, 1980, p. 170, R. D. Lloyd et al., and P. W. Durbin et al., "Specific Sequestering Agents for the Actinides ...". The foregoing articles are hereby incorporated by reference.
Radionuclides used in the animal studies came from a variety of sources. However, they can be purchased commercially. The ^238Pu(IV) citrate and ^241Am(III) citrate solutions were prepared for animal injection by 8- to 10-fold dilution with 0.14M NaCl (pH 4) of concentrated stock solutions (0.08M sodium citrate buffer) that had been held in frozen storage at Lawrence Berkeley Laboratory (hereinafter LBL) for several years. [The ^238Pu(IV) was originally obtained from D. R. Atherton at the University of Utah Radiobiology Laboratory, Salt Lake City. The ^241Am(III) solution had been obtained many years earlier from the LBL Actinide Chemistry group.]
The novel chelating agents of the present invention and comparative compounds were tested for their effectiveness in promoting excretion ^238Pu(IV) in nice by injected ligands as follows. Mice, in groups of five, each received an intravenous injection of 1850 Bq ^238Pu(IV) in 0.2 mL of citrate buffer. One hour later, 30 µmol/kg of ligand was injected intraperitoneally in 0.5 mL of saline. The mice were killed 24 hours after the Pu injection, frozen, and dissected after partial thawing. The ^238Pu in skeleton, soft tissues, and separated excreta was determined by counting the ^234U L x-rays. Results of removal of ^238Pu(IV) from mice by injected ligands are summarized in Table 3, which also includes data for CaNa3-DTPA and other reference ligands and the Pu-injected controls. […] While the case of multidente 1,2-HOPO and catechoylamide chelating agents, octadentates are always better chelating agents than the corresponding hexadentates and tetradentates.

Data set [2] in a line: In vivo acute toxicity test of injected ligands in mice. How it is done: The test of acute toxicity of novel and comparative ligands was carried out as follows. Groups of five mice were each given a single i.p. injection of […] of ligand and a day for 10 days or given two i.p. injections of […] in 8 hours. The ligand was dissolved in 0.5 to 1.0 ml of saline at pH 7 to 8. After a period of observation, the mice were killed; selected tissues were removed and fixed for histopathological examination; and unusual findings at autopsy were recorded. […]

Setting [3] is: protocol IB, 100 µmol kg^-1, study length 5 d.
The mark [4] stands for this setting: protocol I, 100 µmol kg^-1 x 10 daily i.p., study length 11 d.
[5] abbreviates: protocol I, 100 µmol kg^-1 x 10 daily i.p., study length 21 d.
The mark [6] stands for this setting: protocol II, 500 µmol kg^-1 x 2 in 8 h, study length 8 d.

Marks after values point to notes of the source that are not given here.

In the case of `Cn1ccc(C(=O)NCCCCNC(=O)c2ccn(C)c(=O)c2O)c(O)c1=O` [4-LI-Me-3,2-HOPO], the “Pu removal (in words)” value in data set [1] (injected ligands, 30 µmol/kg intraperitoneally one hour after ^238Pu(IV)) was “as effective or more effective than the hexadentate and octadentate chelating agents”. In addition, in data set [1], the “percent of injected ^238Pu ± SD at 24 h, tissues: liver” value is listed as 3.7 ± 1.5^d percent of injected ^238Pu; the “percent of injected ^238Pu ± SD at 24 h, tissues: skeleton” value is 11 ± 1.7% of injected ^238Pu; the “percent of injected ^238Pu ± SD at 24 h, tissues: soft tissue” value is given as 1.9 ± 0.5% of injected ^238Pu; the “percent of injected ^238Pu ± SD at 24 h, whole body” value was 17 ± 2.4^d percent of injected ^238Pu. Also, in data set [1], the “percent of injected ^238Pu at 24 h, excreta: feces and GI contents” value (shortened to “percent … feces and GI contents”) is on record as 63% of injected ^238Pu; the “percent of injected ^238Pu at 24 h, excreta: urine 0-24 h” value (shortened to “percent … urine 0-24 h”) was 19.4% of injected ^238Pu; the “percent of injected ^238Pu at 24 h, tissues: kidneys” value (from here on “percent of injected ^238Pu … kidneys”) was 0.4% of injected ^238Pu. Moreover, in data set [2] (setting [3]), the no. of survivors stood at 0, the “percent control mean + SD: body weight” value was determined as 85 ± 8 percent control, the “percent control mean + SD: kidney weight” value came out at 190 ± 63 percent control and the “percent control mean + SD: plasma urea N” value is over 2000 percent control.

On to `Cn1ccc(C(=O)NCCN(CCNC(=O)c2ccn(C)c(=O)c2O)CCN(CCNC(=O)c2ccn(C)c(=O)c2O)CCNC(=O)c2ccn(C)c(=O)c2O)c(O)c1=O` [H(2,2)-Me-3,2-HOPO, N,N,N',N'-tetrakis[(3-hydroxyl-1-methyl-2-oxo-1,2-dihydropyridin-4-yl)carboxamido-ethyl]-ethylenediamine], for which, in data set [1], the “percent of injected ^238Pu ± SD at 24 h, tissues: liver” value is recorded as 3.8 ± 1.1^d percent of injected ^238Pu; the “percent of injected ^238Pu ± SD at 24 h, tissues: skeleton” value is 11 ± 1.7% of injected ^238Pu; the “percent of injected ^238Pu ± SD at 24 h, tissues: soft tissue” value is given as 2.8 ± 1.6% of injected ^238Pu; the “percent of injected ^238Pu ± SD at 24 h, whole body” value was 19 ± 2.9^d percent of injected ^238Pu. Further, in data set [1], the “percent … feces and GI contents” value is recorded as 45.3% of injected ^238Pu; the “percent … urine 0-24 h” value is given as 36% of injected ^238Pu; the “percent of injected ^238Pu … kidneys” value was 1.3% of injected ^238Pu. In data set [2] (setting [4]), the no. of survivors turned out to be 5, the “percent control mean + SD: body weight” value is 92 ± 6 percent control and the “percent control mean + SD: plasma urea N” value was 223 ± 28 percent control. In addition, in data set [2] (setting [5]), the no. of survivors is given as 5, the “percent control mean + SD: body weight” value stood at 87 ± 9 percent control and the “percent control mean + SD: plasma urea N” value amounted to 225 ± 188 percent control. In addition, in data set [2] (setting [6]), the no. of survivors is recorded as 3, the “percent control mean + SD: body weight” value is listed as 94 ± 6 percent control and the “percent control mean + SD: plasma urea N” value was found to be 169 ± 10 percent control.

For the compound `Cn1ccc(C(=O)NCCCN(CCCNC(=O)c2ccn(C)c(=O)c2O)CCCNC(=O)c2ccn(C)c(=O)c2O)c(O)c1=O` [TRPN-Me-3,2-HOPO], in data set [1], the “percent of injected ^238Pu ± SD at 24 h, tissues: liver” value is reported as 17 ± 5.0% of injected ^238Pu; the “percent of injected ^238Pu ± SD at 24 h, tissues: skeleton” value is 14 ± 3.2% of injected ^238Pu; the “percent of injected ^238Pu ± SD at 24 h, tissues: soft tissue” value was 2.0 ± 1.1% of injected ^238Pu; the “percent of injected ^238Pu ± SD at 24 h, whole body” value is recorded as 33 ± 5.3% of injected ^238Pu. Besides, in data set [1], the “percent … feces and GI contents” value is 11.5% of injected ^238Pu; the “percent … urine 0-24 h” value is on record as 55% of injected ^238Pu.

For the compound `Cc1c(CNC(=O)c2ccn(C)c(=O)c2O)c(C)c(CNC(=O)c2ccn(C)c(=O)c2O)c(C)c1CNC(=O)c1ccn(C)c(=O)c1O` [ME-Me-3,2-HOPO], in data set [1], the “percent of injected ^238Pu ± SD at 24 h, tissues: liver” value was 6.1 ± 4.9^d percent of injected ^238Pu; the “percent of injected ^238Pu ± SD at 24 h, tissues: skeleton” value is listed as 12 ± 1.8% of injected ^238Pu; the “percent of injected ^238Pu ± SD at 24 h, tissues: soft tissue” value was 3.0 ± 2.0% of injected ^238Pu; the “percent of injected ^238Pu ± SD at 24 h, whole body” value is on record as 22 ± 8.5^d percent of injected ^238Pu. Further, in data set [1], the “percent … feces and GI contents” value was 70.1% of injected ^238Pu; the “percent … urine 0-24 h” value was 33.5% of injected ^238Pu; the “percent of injected ^238Pu … kidneys” value is 0.9% of injected ^238Pu.

Take `Cn1ccc(C(=O)NCCN(CCCCN(CCNC(=O)c2ccn(C)c(=O)c2O)CCNC(=O)c2ccn(C)c(=O)c2O)CCNC(=O)c2ccn(C)c(=O)c2O)c(O)c1=O` [H(4,2)-Me-3,2-HOPO, N,N,N',N'-tetrakis[(3-hydroxy-1-methyl-2-oxo-1,2-dihydropyridin-4-yl)carboxamido-ethyl]-butylenediamine]: in data set [1], the “percent of injected ^238Pu ± SD at 24 h, tissues: liver” value is given as 29 ± 6.1% of injected ^238Pu; the “percent of injected ^238Pu ± SD at 24 h, tissues: skeleton” value was 12 ± 2.9% of injected ^238Pu; the “percent of injected ^238Pu ± SD at 24 h, tissues: soft tissue” value was 1.9 ± 1.0% of injected ^238Pu; the “percent of injected ^238Pu ± SD at 24 h, whole body” value is 46 ± 8.5% of injected ^238Pu. In addition, in data set [1], the “percent … feces and GI contents” value is reported as 26.8% of injected ^238Pu; the “percent … urine 0-24 h” value was 28% of injected ^238Pu; the “percent of injected ^238Pu … kidneys” value is reported as 1.8% of injected ^238Pu.

For the compound `Cn1ccc(C(=O)NCCN(CCCN(CCNC(=O)c2ccn(C)c(=O)c2O)CCNC(=O)c2ccn(C)c(=O)c2O)CCNC(=O)c2ccn(C)c(=O)c2O)c(O)c1=O` [H(3,2)-Me-3,2-HOPO, N,N,N',N'-tetrakis[(3-hydroxy-1-methyl-2-oxo-1,2-dihydropyridin-4-yl)carboxamido-ethyl]-propylenediamine], in data set [1], the “percent of injected ^238Pu ± SD at 24 h, tissues: liver” value is on record as 14 ± 6.1% of injected ^238Pu; the “percent of injected ^238Pu ± SD at 24 h, tissues: skeleton” value is reported as 10 ± 2.0% of injected ^238Pu; the “percent of injected ^238Pu ± SD at 24 h, tissues: soft tissue” value is reported as 2.4 ± 0.3^d percent of injected ^238Pu; the “percent of injected ^238Pu ± SD at 24 h, whole body” value is given as 28 ± 4.8% of injected ^238Pu. For the same compound, in data set [1], the “percent … feces and GI contents” value was 52.1% of injected ^238Pu; the “percent … urine 0-24 h” value was 19.5% of injected ^238Pu; the “percent of injected ^238Pu … kidneys” value is 1.2% of injected ^238Pu.

For the compound `Cn1ccc(C(=O)NCCN(CCNC(=O)c2ccn(C)c(=O)c2O)CCN(CC(=O)O)CC(=O)O)c(O)c1=O` [TREN-bis(Me-3,2-HOPO)-bis acetic acid], in data set [1], the “percent of injected ^238Pu ± SD at 24 h, tissues: liver” value was 6.6 ± 2.2^d percent of injected ^238Pu; the “percent of injected ^238Pu ± SD at 24 h, tissues: skeleton” value is 20 ± 1.7% of injected ^238Pu; the “percent of injected ^238Pu ± SD at 24 h, tissues: soft tissue” value was 2.7 ± 0.8% of injected ^238Pu; the “percent of injected ^238Pu ± SD at 24 h, whole body” value is listed as 30 ± 3.6% of injected ^238Pu. In data set [1], the “percent … feces and GI contents” value is 34.6% of injected ^238Pu; the “percent … urine 0-24 h” value is 8.7% of injected ^238Pu; the “percent of injected ^238Pu … kidneys” value is 0.5% of injected ^238Pu.
